Measured values: US6632906B1, “Adhesives” (Strakan Limited, priority 1999, dated 2003)

What was measured:
Type in all cases: physicochemical
[1] = Stability of drug-containing patches, adhesive of the invention; conditions: 6 days at 60° C.
Procedure: The mixed solutions were coated onto PET film and heated at 80° C. for 20 minutes. The content of drug was determined both immediately after preparation and after storage at 6 days at 60° C.

[2] = Stability of drugs in Nitto adhesive
Procedure: The mixed solutions were coated onto PET film and heated at 80° C. for 20 minutes. The content of drug was determined immediately after preparation and after storage for 6 days at 60° C.

[3] = Saturation concentration of drugs in adhesives (crystallisation); set-up: key: No crystallisation. Drug is dissolved; ¦: Crystallisation; conditions: IPM 1.0 g
Source text: Oestradiol (a hydrophobic drug) and piroxicam (a hydrophilic drug), were investigated to establish their saturation concentrations in the two adhesives. As before, formulations 3 in each of Tables 9 and 10 were used.

[4] = Bakelite 180° peel strength test
Procedure: Peel strength was measured by coating each sample onto a PET strip 25 mm wide and 100 mm long and applying the strip to a bakelite plate. Then, a roller having a load of 300 g is rolled back and forth thereon to secure the sample to the plate. The sample is subsequently peeled off at an angle of 180° at a rate of 300 mm/min. to determine peel force. Unless otherwise specified, peel force is measured herein by this test.
In this Example, PET strips were 20 mm in width. In the adhesive of Example 1, adipic acid diamine was dissolved in methanol+water (19:1 by volume) to a concentration of 0.5%.
The Nitto Adhesive was dissolved in ethyl acetate. The cross-linking agent (aluminium tri-acetylacetonate) was dissolved in acetylacetone+ethylacetate (1:1 by volume) solution to a concentration of 0.5%.
IPM was used as plasticiser for both. Heating was at 80° C. for 20 minutes in both cases.

[5] = Nitto Adhesive 1.0 g, cross-linker 10 mg, drug 40
[6] = Nitto Adhesive 1.0 g, cross-linker 10 mg, drug 50
[7] = Nitto Adhesive 1.0 g, cross-linker 10 mg, drug 75
[8] = Adhesive B from Example 11, diethylene triamine 20 mg as cross-linker
[9] = allyl acetoacetate polymer of Example 9, 0.8 g of plasticiser, adipic acid diamine cross-linked

SMILES	deterioration of drug content after storage [1]	Crystallisation [3, 5]	Crystallisation [3, 6]	Crystallisation [3, 7]	Adhesion strength [4, 8] [g/25 mm]	Adhesion strength [4, 9] [g/20 mm]	also measured
C=C1CC[C@H](O)C/C1=C/C=C1\CCC[C@]2(C)[C@@H]([C@H](C)/C=C/[C@H](C)C(C)C)CC[C@@H]12 [vitamin D2]	no measurable deterioration						decomposed further during the 6 day storage period ([2]; 6 days at 60° C.): 20%; decomposed during the preparation process ([2]; coated onto PET film, 80° C. for 20 minutes): ca. 30%
C[C@]12CC[C@@H]3c4ccc(O)cc4CC[C@H]3[C@@H]1CC[C@@H]2O [oestradiol]		¦	¦	¦			Crystallisation ([3]; Adhesive of invention 1.0 g, cross-linker 3.0 mg, drug 120 mg): ¦; Crystallisation ([3]; Adhesive of invention 1.0 g, cross-linker 3.0 mg, drug 150 mg): ¦
CCCCCCCC/C=C\CCCCCCCC(=O)OC [MO, methyl oleate]					35	95	
CN1C(C(=O)Nc2ccccn2)=C(O)c2ccccc2S1(=O)=O [Piroxicam]	no measurable deterioration	¦	¦	¦			Crystallisation ([3]; Adhesive of invention 1.0 g, cross-linker 3.0 mg, drug 50): ¦; Crystallisation ([3]; Adhesive of invention 1.0 g, cross-linker 3.0 mg, drug 75): ¦; stability of drug ([2]; during the preparation process and after heating 60° C. for 6 days): stable
CCCCCCCCCCCCCC(=O)OC(C)C [IPM, isopropyl myristate]					30	80	
